Test results from ChEMBL document CHEMBL1697731, “Cheminformatics analysis of assertions mined from literature that describe drug-induced liver injury in different species” (Chem Res Toxicol, 2010).

Legend:
[1] = tested on: Hepatotoxicity; assay: Literature-mined compound from Fourches et al multi-species drug-induced liver injury (DILI) dataset, effect in humans; details: human
[2] = tested on: Hepatotoxicity; assay: Literature-mined compound from Fourches et al multi-species drug-induced liver injury (DILI) dataset, effect in rodents; details: rodentia
[3] = tested on: Hepatotoxicity; assay: Literature-mined compound from Fourches et al multi-species drug-induced liver injury (DILI) dataset, effect in non-rodents

SMILES	Hepatotoxicity [1]	Hepatotoxicity [2]	Hepatotoxicity [3]	Hepatotoxicity ([1]; Liver)	Hepatotoxicity ([2]; Liver)	Hepatotoxicity ([3]; Liver)
CO[C@@H]1[C@H](OC(=O)NC(=O)CCl)CC[C@]2(CO2)[C@H]1[C@@]1(C)O[C@@H]1CC=C(C)C [O-CHLOROACETYLCARBAMOYLFUMAGILLOL]	no drug-induced liver injury reported	drug-induced liver injury reported	drug-induced liver injury reported			
Cc1cc2c(s1)Nc1ccccc1N=C2N1CCN(C)CC1 [OLANZAPINE]	drug-induced liver injury reported	no drug-induced liver injury reported	no drug-induced liver injury reported			
CCCCCCCC/C=C\CCCCCCCC(=O)O [OLEIC ACID]	no drug-induced liver injury reported	drug-induced liver injury reported	no drug-induced liver injury reported			
CCCc1nc(C(C)(C)O)c(C(=O)OCc2oc(=O)oc2C)n1Cc1ccc(-c2ccccc2-c2nnn[nH]2)cc1 [OLMESARTAN MEDOXOMIL]	no drug-induced liver injury reported	drug-induced liver injury reported	no drug-induced liver injury reported			
COC(=O)C[C@](O)(CCCC(C)(C)O)C(=O)O[C@@H]1C(OC)=C[C@]23CCCN2CCc2cc4c(cc2[C@H]13)OCO4 [OMACETAXINE MEPESUCCINATE]	drug-induced liver injury reported	no drug-induced liver injury reported	no drug-induced liver injury reported			
COc1ccc2[nH]c([S+]([O-])Cc3ncc(C)c(OC)c3C)nc2c1 (centres undefined) [OMEPRAZOLE]	drug-induced liver injury reported	drug-induced liver injury reported	no drug-induced liver injury reported			
Cc1nccn1CC1CCc2c(c3ccccc3n2C)C1=O (centres undefined) [ONDANSETRON]	drug-induced liver injury reported	no drug-induced liver injury reported	no drug-induced liver injury reported			
Cc1[nH]c(/C=C2\C(=O)Nc3ccccc32)c(C)c1CCC(=O)O [ORANTINIB]	drug-induced liver injury reported	no drug-induced liver injury reported	no drug-induced liver injury reported			
CCCCCCCCCCC[C@@H](C[C@@H]1OC(=O)[C@H]1CCCCCC)OC(=O)[C@H](CC(C)C)NC=O [ORLISTAT]	drug-induced liver injury reported	no drug-induced liver injury reported	no drug-induced liver injury reported			
O=C(O)c1cc(=O)[nH]c(=O)[nH]1 [OROTIC ACID]	no drug-induced liver injury reported	drug-induced liver injury reported	no drug-induced liver injury reported			
Cc1ccccc1C(OCCN(C)C)c1ccccc1 (centres undefined) [ORPHENADRINE]	no drug-induced liver injury reported	drug-induced liver injury reported	no drug-induced liver injury reported			
CC(C)NCC1CCc2cc(CO)c([N+](=O)[O-])cc2N1 (centres undefined) [OXAMNIQUINE]	no drug-induced liver injury reported	drug-induced liver injury reported	no drug-induced liver injury reported			
C[C@]12COC(=O)C[C@@H]1CC[C@@H]1[C@@H]2CC[C@@]2(C)[C@H]1CC[C@]2(C)O [OXANDROLONE]	no drug-induced liver injury reported	drug-induced liver injury reported	no drug-induced liver injury reported			
O=C(O)CCc1nc(-c2ccccc2)c(-c2ccccc2)o1 [OXAPROZIN]	drug-induced liver injury reported	no drug-induced liver injury reported	no drug-induced liver injury reported			
NC(=O)N1c2ccccc2CC(=O)c2ccccc21 [OXCARBAZEPINE]	drug-induced liver injury reported	no drug-induced liver injury reported	no drug-induced liver injury reported			
CNCC(O)c1ccc(O)cc1 (centres undefined) [OXEDRINE]	no drug-induced liver injury reported	drug-induced liver injury reported	no drug-induced liver injury reported			
CN(C(=O)CN(CCO)CC(=O)N(C)C(C)(C)Cc1ccccc1)C(C)(C)Cc1ccccc1 [OXETHAZAINE]	no drug-induced liver injury reported	drug-induced liver injury reported	no drug-induced liver injury reported			
C=CCOc1ccccc1OCC(O)CNC(C)C (centres undefined) [OXPRENOLOL]				no drug-induced liver injury reported	no drug-induced liver injury reported	drug-induced liver injury reported
